Assay results taken from patent publication US11214803B2, “Modulators of YAP1 expression” (Ionis Pharmaceuticals, Inc., priority 2019, dated 2022).
Strand notation (5' to 3'): a small letter for the sugar, then the base; units joined by * are phosphorothioate-linked, units joined directly phosphodiester-linked; [ ] holds rarer units or linkages, { } end groups; capitals alone tell only the bases. e = 2'-O-(2-methoxyethyl) (MOE); k = constrained ethyl (cEt); [5mC] = 5-methylcytosine; d = 2'-deoxy (DNA); m = 2'-O-methyl

System: Yap1 mRNA
Assay: Antisense inhibition of human Yap1 in SNU-449 cells by modified oligonucleotides, single dose (Example 5, RTS36584)
Format: cell-based
Procedure, shortened: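 Each modified oligonucleotide is applied by free uptake to SNU-449 cultures at 2,000 nM, and total RNA is harvested around 48 h later. Yap1 transcript, quantified with the RTS36584 set and corrected for RIBOGREEN RNA content, is given as % UTC. Asterisks mark sequences overlapping the amplicon.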

[1] = Table 49, Yap1 mRNA level relative to untreated control, modified oligonucleotides targeting SEQ ID NO.: 1 and 2
[2] = Table 50, Yap1 mRNA remaining as percent of untreated control (UT), SNU-449 cells, single dose
[3] = Table 46, Yap1 mRNA as percent of untreated control, SNU-449 cells, single dose
[4] = Table 40 (separate experiment), SNU-449 cells, 10,000 cells per well, free uptake, 2,000 nM oligonucleotide, approx. 48 hours, RTS36584, normalized to RIBOGREEN, Yap1 mRNA relative to untreated control
[5] = Table 45, Yap1 mRNA as percent of untreated control, SNU-449 cells, single dose
[6] = Table 51, Yap1 mRNA remaining as percent of untreated control (UT), SNU-449 cells, single dose
[7] = Table 42 (separate experiment), SNU-449 cells, 10,000 cells per well, free uptake, 2,000 nM modified oligonucleotide, approximately 48 hours, RTS36584, normalized to RIBOGREEN, Yap1 mRNA relative to untreated control cells
[8] = Table 43 experiment, SNU-449 cells, 10,000 cells per well, free uptake, 2,000 nM, approximately 48 hours, RTS36584, Yap1 mRNA normalized to RIBOGREEN, relative to untreated control cells
[9] = Yap1 mRNA, percent of untreated control, modified oligonucleotides targeting SEQ ID NO: 1 and 2, Table 47
[10] = Table 48, Yap1 mRNA level relative to untreated control, modified oligonucleotides targeting SEQ ID NO.: 1 and 2
[11] = Table 41, SNU-449 cells, 10,000 cells per well, free uptake, 2,000 nM modified oligonucleotide, approximately 48 hours, RTS36584, normalized to RIBOGREEN, Yap1 mRNA relative to untreated control cells

## 1198580 (antisense kG*kT*kG*d[5mC]*dT*dT*dT*dG*dG*dA*dA*dG*kA*kT*k[5mC]*eT) [Compound 1198580]
[1]
  YAP1 (% UT): 43 % UT

## 1198594 (antisense k[5mC]*kT*kT*dA*dT*dA*dT*dG*dG*dT*dT*dT*kT*kG*kT*eG) [Compound 1198594]
[2]
  YAP1 (% UT): 23 % UT

## 1198821 (kT*k[5mC]*dT*dA*dT*dA*dT*dT*dA*dG*dA*kG*eT*kA*eT*kG; antisense) [Compound 1198821]
[3]
  YAP1 (% UT): 62 % UT

## 1198777 (kA*eT*kT*dG*d[5mC]*dA*dA*dT*d[5mC]*dT*dG*dT*e[5mC]*eT*kG*kA; antisense) [Compound 1198777]
[4]
  YAP1 (% UTC): 84 % UTC

## 1198801 (antisense kG*eA*k[5mC]*dT*dA*dA*dG*dT*dA*dA*dG*dG*eT*eT*kT*k[5mC]) [Compound 1198801]
[4]
  YAP1 (% UTC): 47 % UTC

## 1198910 (kA*kG*dG*dT*dA*dT*dA*dA*d[5mC]*dT*dG*kG*dG*k[5mC]*dA*kA; antisense) [Compound 1198910]
[5]
  YAP1 (% UTC): 40 % UTC

## 1198579 (antisense kT*kG*k[5mC]*dT*dT*dT*dG*dG*dA*dA*dG*dA*kT*k[5mC]*kT*eG) [Compound 1198579]
[1]
  YAP1 (% UT): 34 % UT

## 1198572 (antisense kA*kA*kG*d[5mC]*dA*d[5mC]*dT*dT*dT*dT*dA*d[5mC]*kA*kT*kT*eA) [Compound 1198572]
[1]
  YAP1 (% UT): 53 % UT

## 1198834 (kA*kA*dG*d[5mC]*dA*d[5mC]*dT*dT*dT*dT*dA*k[5mC]*eA*kT*eT*kA; antisense) [Compound 1198834]
[3]
  YAP1 (% UT): 54 % UT

## 1198355 (kA*kA*kA*dG*dT*dG*dT*dA*dT*dG*dT*d[5mC]*kA*eG*kA*eA; antisense) [Compound 1198355]
[1]
  YAP1 (% UT): 6 % UT

## 1200785 (kA*kT*kT*dG*dT*mC*dT*d[5mC]*dA*dT*dG*d[5mC]*d[5mC]*kT*kT*kA; antisense) [Compound 1200785]
[6]
  YAP1 (% UT): 15 % UT

## 1198206 (kA*kT*dA*dT*dG*dG*dA*dA*dA*dT*dT*eG*eT*e[5mC]*kT*k[5mC]; antisense) [Compound 1198206]
[7]
  YAP1 (% UTC): 43 % UTC

## 1198742 (kT*eT*kT*dT*dA*d[5mC]*dA*dT*dT*dA*dG*dG*eA*eA*k[5mC]*kA; antisense) [Compound 1198742]
[4]
  YAP1 (% UTC): 143 % UTC

## 1198955 (kA*kT*dG*dT*dA*dA*dT*dA*dT*dT*dG*k[5mC]*dA*kA*dT*k[5mC]; antisense) [Compound 1198955]
[5]
  YAP1 (% UTC): 92 % UTC

## 1198685 (antisense k[5mC]*kA*dA*d[5mC]*dT*d[5mC]*dT*dT*dA*dT*dA*dT*kG*eG*kT*eT) [Compound 1198685]
[7]
  YAP1 (% UTC): 70 % UTC

## 1198265 (kT*kT*dT*dA*dT*dG*dT*dA*dA*dT*dA*eT*eT*eG*k[5mC]*kA; antisense) [Compound 1198265]
[8]
  YAP1 (% UTC): 111 % UTC

## 1198683 (antisense kA*k[5mC]*dT*d[5mC]*dT*dT*dA*dT*dA*dT*dG*dG*kT*eT*kT*eT) [Compound 1198683]
[7]
  YAP1 (% UTC): 27 % UTC

## 1198573 (antisense kT*kT*kA*dA*dG*d[5mC]*dA*d[5mC]*dT*dT*dT*dT*kA*k[5mC]*kA*eT) [Compound 1198573]
[1]
  YAP1 (% UT): 76 % UT

## 1198558 (antisense kT*kA*kT*dA*dT*dT*dA*dG*dA*dG*dT*dA*kT*kG*kT*eG) [Compound 1198558]
[1]
  YAP1 (% UT): 46 % UT

## 1198809 (antisense kG*kG*dA*dA*dA*dT*dT*dG*dT*d[5mC]*dT*k[5mC]*eA*kT*eG*k[5mC]) [Compound 1198809]
[3]
  YAP1 (% UT): 27 % UT

## 1095483 (antisense k[5mC]*kA*d[5mC]*dT*dG*dA*dG*dG*dT*dA*dT*dA*kA*e[5mC]*kT*eG) [Compound 1095483]
[7]
  YAP1 (% UTC): 101 % UTC

## 1197187 (antisense kG*kG*kA*dA*dG*dA*dT*d[5mC]*dT*dG*dA*dA*dA*k[5mC]*kT*k[5mC]) [Compound 1197187]
[9]
  YAP1 (% UT): 24 % UT

## 1198749 (kT*eT*kA*dA*dG*d[5mC]*dA*d[5mC]*dT*dT*dT*dT*eA*e[5mC]*kA*kT; antisense) [Compound 1198749]
[4]
  YAP1 (% UTC): 73 % UTC

## 1198754 (kG*e[5mC]*kT*dT*dT*dG*dG*dA*dA*dG*dA*dT*e[5mC]*eT*kG*kA; antisense) [Compound 1198754]
[4]
  YAP1 (% UTC): 23 % UTC

## 1198320 (kG*k[5mC]*kT*dT*dT*dG*dG*dA*dA*dG*dA*dT*k[5mC]*eT*kG*eA; antisense) [Compound 1198320]
[10]
  YAP1 (% UT): 26 % UT

## 1197182 (antisense kT*kT*kT*dT*dA*d[5mC]*dA*dT*dT*dA*dG*dG*dA*kA*k[5mC]*kA) [Compound 1197182]
[9]
  YAP1 (% UT): 115 % UT

## 1198653 (k[5mC]*kT*dT*dT*dT*dA*d[5mC]*dA*dT*dT*dA*dG*kG*eA*kA*e[5mC]; antisense) [Compound 1198653]
[11]
  YAP1 (% UTC): 64 % UTC

## 1095399 (antisense k[5mC]*dA*d[5mC]*dT*dG*dA*dG*dG*dT*dA*dT*kA*eA*k[5mC]*eT*kG) [Compound 1095399]
Table 39, SNU-449 cells, 10,000 cells per well, free uptake, 2,000 nM oligonucleotide, approx. 48 hours, RTS36584, normalized to RIBOGREEN, Yap1 mRNA relative to untreated control
  YAP1 (% UTC): 46 % UTC

## 1198805 (antisense kA*kT*dT*dG*dT*d[5mC]*dT*d[5mC]*dA*dT*dG*k[5mC]*e[5mC]*kT*eT*kA) [Compound 1198805]
[3]
  YAP1 (% UT): 23 % UT

## 1198258 (kA*kT*dA*dT*dT*dG*d[5mC]*dA*dA*dT*d[5mC]*eT*eG*eT*k[5mC]*kT; antisense) [Compound 1198258]
[8]
  YAP1 (% UTC): 52 % UTC

## 1197241 (antisense kA*k[5mC]*kT*dG*mA*dG*dG*dT*dA*dT*dA*dA*d[5mC]*kT*kG*kG) [Compound 1197241]
[6]
  YAP1 (% UT): 19 % UT

## 1200807 (k[5mC]*kT*kG*dA*dG*mG*dT*dA*dT*dA*dA*d[5mC]*dT*kG*kG*kG; antisense) [Compound 1200807]
Table 52, Yap1 mRNA, modified oligonucleotides targeting SEQ ID NO: 1 and 2
  YAP1 (% UT): 69 % UT

## 1198908 (kT*kA*dT*dA*dA*d[5mC]*dT*dG*dG*dG*d[5mC]*kA*dA*kA*dT*kT; antisense) [Compound 1198908]
[5]
  YAP1 (% UTC): 124 % UTC

## 1198738 (kA*e[5mC]*kT*dG*dA*dG*dG*dT*dA*dT*dA*dA*e[5mC]*eT*kG*kG; antisense) [Compound 1198738]
[11]
  YAP1 (% UTC): 38 % UTC

## 1198884 (kT*kA*dA*dG*dT*dA*dA*dG*dG*dT*dT*kT*e[5mC]*k[5mC]*e[5mC]*kA; antisense) [Compound 1198884]
[3]
  YAP1 (% UT): 28 % UT

## 1198515 (kA*kT*dT*dG*d[5mC]*dA*dA*dT*d[5mC]*dT*dG*eT*k[5mC]*eT*kG*eA; antisense) [Compound 1198515]
Table 44 experiment, SNU-449 cells, 10,000 cells per well, free uptake, 2,000 nM, approximately 48 hours, RTS36584, Yap1 mRNA normalized to RIBOGREEN, relative to untreated control cells
  YAP1 (% UTC): 44 % UTC

## 1198949 (kA*kT*dT*dG*d[5mC]*dA*dA*dT*d[5mC]*dT*dG*kT*d[5mC]*kT*dG*kA; antisense) [Compound 1198949]
[5]
  YAP1 (% UTC): 61 % UTC

## 1198872 (kT*kG*dT*dA*dT*dG*dT*d[5mC]*dA*dG*dA*kA*eG*kA*eG*kT; antisense) [Compound 1198872]
[9]
  YAP1 (% UT): 8 % UT

## 1198763 (kG*eA*kT*dT*dT*dA*dG*dG*dA*dT*dG*d[5mC]*eA*eT*kG*kG; antisense) [Compound 1198763]
[4]
  YAP1 (% UTC): 26 % UTC

## 1197235 (antisense kA*kT*kT*dA*mG*dA*dG*dT*dA*dT*dG*dT*dG*kG*k[5mC]*kA) [Compound 1197235]
[2]
  YAP1 (% UT): 16 % UT

## 1198289 (kG*kG*kA*dA*dA*dT*dT*dG*dT*d[5mC]*dT*d[5mC]*kA*eT*kG*e[5mC]; antisense) [Compound 1198289]
[10]
  YAP1 (% UT): 12 % UT

## 1200786 (kA*kA*kT*dT*dG*mU*d[5mC]*dT*d[5mC]*dA*dT*dG*d[5mC]*k[5mC]*kT*kT; antisense) [Compound 1200786]
[6]
  YAP1 (% UT): 21 % UT

## 1198553 (antisense kT*kA*kG*dA*dG*dT*dA*dT*dG*dT*dG*dG*k[5mC]*kA*kA*eT) [Compound 1198553]
[1]
  YAP1 (% UT): 13 % UT

## 1197250 (antisense kT*kT*kG*dG*mA*dA*dG*dA*dT*d[5mC]*dT*dG*dA*kA*kA*k[5mC]) [Compound 1197250]
[6]
  YAP1 (% UT): 60 % UT

## 1198570 (antisense kG*k[5mC]*kA*d[5mC]*dT*dT*dT*dT*dA*d[5mC]*dA*dT*kT*kA*kG*eG) [Compound 1198570]
[1]
  YAP1 (% UT): 15 % UT

## 1198205 (kA*kT*dG*dG*dA*dA*dA*dT*dT*dG*dT*e[5mC]*eT*e[5mC]*kA*kT; antisense) [Compound 1198205]
[7]
  YAP1 (% UTC): 64 % UTC

## 1198731 (kT*e[5mC]*kT*dA*dT*dA*dT*dT*dA*dG*dA*dG*eT*eA*kT*kG; antisense) [Compound 1198731]
[4]
  YAP1 (% UTC): 59 % UTC

## 1198257 (kA*dT*dT*dG*d[5mC]*dA*dA*dT*d[5mC]*dT*dG*eT*e[5mC]*eT*kG*kA; antisense) [Compound 1198257]
[8]
  YAP1 (% UTC): 85 % UTC
